Results published in patent US11542515B2, “Methods and compositions for increasing efficiency of targeted gene modification using oligonucleotide-mediated gene repair” (CIBUS US LLC, priority 2016, dated 2023).
Entries after “also recorded” stand apart in the source; their conditions may differ. In the oligonucleotide strings, read from the 5' end, every base follows the letter of its sugar. An asterisk marks phosphorothioate; unmarked linkages are phosphodiester. Other units and linkages are bracketed, terminal groups are in braces. A string of capitals states the bases alone. d = 2'-deoxy (DNA)

What was measured:
flax calli = assay: Glyphosate tolerance of flax calli (fresh weight); assay type: cell-based, Linum usitatissimum; settings: edited callus line Y23 / A23, all glyphosate concentrations tested, p<0.01
Experimental: (§1) Glyphosate tolerance of calli and regenerated plants was assessed in vitro and in the greenhouse, respectively. Individual calli were cloned by cutting and culturing smaller pieces in fresh regeneration medium to increase callus mass. Calli derived from wild type leaf protoplasts were used as negative control. Calli derived from subcultures of individual callus lines were then pooled and broken up into 0.5-1 mm pieces by blending in liquid MS medium (4.33 g/L MS salts, 3% sucrose and 0.1% Morel and Wetmore vitamins) and 0.25 ml of settled callus pieces was inoculated on regeneration medium containing 0, 0.125, 0.25, 0.5, 1.0 or 2.0 mM glyphosate. Treatments were performed in triplicate, and the experiments were repeated three times. Prior to spray tests, regenerated plants were subjected to a hardening period in a growth chamber (Conviron, Winnipeg, MB) under a 16-h photoperiod with day and night temperatures 21° C. and 18° C. respectively. Hardened plants were transferred to the greenhouse for glyphosate treatment. Wild type control and EPSPS edited plants were sprayed with 10.5 mM or 21.0 mM glyphosate (Roundup Pro, Monsanto). Treatment rates were normalized to a 75.7 ai/A (active ingredient per acre) spray volume to replicate field conditions. […] Plants were evaluated and photographed 6 days after the glyphosate treatment to determine herbicide tolerance. […]

flax plants = assay: Glyphosate spray test of regenerated flax plants in the greenhouse; assay type: in vivo, Linum usitatissimum; settings: 10.5 or 21.0 mM spray, 6 days after treatment
Experimental: as §1

[1] = system: blue fluorescent protein (BFP) gene; assay: BFP to GFP conversion by GRON, with or without zeocin/phleomycin, in BFP transgenic protoplasts (flow cytometry); assay type: cell-based, Arabidopsis thaliana; settings: 250 and 1000 μg/ml, 90 min before GRON
Text: Sommer et al., (Mol Biotechnol. 33:115-22, 2006) describes a reporter system for the detection of in vivo gene conversion that relies upon a single nucleotide change to convert between blue and green fluorescence in green fluorescent protein (GFP) variants. This reporter system was adapted for use in the following experiments using Arabidopsis thaliana as a model species in order to assess efficiency of GRON mediated conversion.
In short, for this and the subsequent examples an Arabidopsis thaliana line with multiple copies of a blue fluorescent protein gene was created by methods known to those skilled in the art (see, e.g., Clough and Brent, 1998). […]
The purpose of this series of experiments is to compare the conversion efficiencies of the phosphothioate (PS) labeled GRONs with 3PS moieties at each end of the GRON to 2′-O-Me or “2OMe” in the presence and absence of a member of the bleomycin family, Zeocin™ to induce DNA breaks. […] GRONs were delivered into Arabidopsis thaliana BFP protoplasts by PEG treatment and BFP to GFP conversion was determined at 24 h post treatment by cytometry. […]
Seventy-two h after transfection, cells were analyzed by cytometry using the Attune® Acoustic Focusing cytometer (Applied Biosystems®) with excitation and detection of emission as appropriate for GFP. […]

[2] = system: blue fluorescent protein (BFP) gene; assay: as above; assay type: cell-based, Arabidopsis thaliana
bfp gene = assay: BFP to GFP conversion by CRISPR plasmid plus GRON in BFP transgenic protoplasts (flow cytometry); assay type: cell-based, Arabidopsis thaliana; settings: 72 h
Experimental: BFP transgenic Arabidopsis thaliana protoplasts derived from induced root tissue were seeded on a flat-bottom 96-well plate, at 250,000 cells per well at a cell density of 1×10^7 cells/ml. The CRISPR encoded plasmids contain the mannopine synthase (MAS) promoter driving the Cas9 coding sequence with an rbcSE9 terminator and the Arabidopsis U6 promoter driving the sgRNA with a poly-T10 terminator. The CRISPR plasmids along with GRON were introduced into protoplasts by PEG mediated delivery at a final concentration of 0.05 μg/μl and 0.16 μM respectively. Protoplasts were incubated in the dark at 23° C. for 72 hours, and then they were analyzed by flow cytometer in order to determine the percentage of GFP positive protoplasts within a given treatment.
The CRISPR consists of two components: the plant codon-optimized Streptococcus pyogenes Cas9 (SpCas9) and sgRNA both of which were expressed from the same plasmid. The sgRNA is a fusion of CRISPR RNA (crRNA) and trans-activating crRNA (tracrRNA). The crRNA region contains the spacer sequence used to guide the Cas9 nuclease to the BFP target gene (FIG. 3). 201-mer GRONs targeting BFP with or without wobble bases were used to determine their effect on the rate of BFP to GFP conversion.
(§2) BFP transgenic Arabidopsis thaliana protoplasts derived from induced root tissue were seeded on a flat-bottom 96-well plate, at 250,000 cells per well at a cell density of 1×10^7 cells/ml. […] Protoplasts were incubated in the dark at 23° C. for 72 hours, and then they were analyzed by flow cytometer in order to determine the percentage of GFP positive protoplasts within a given treatment. […]
as §2, with “cytometry” for “cytometer”

accase gene = assay: ACCase conversion in rice protoplasts (NGS); assay type: cell-based, Oryza sativa

## O=C(O)CNCP(=O)(O)O [glyphosate]
Flax calli
  fresh weight of calli with T97I and P101A edits versus wild type calli: significantly higher
Flax plants
  phenotype of wild type plants: wilted and necrotic phenotype typical of glyphosate toxicity
Flax plants; Y23 / A23 plants
  phenotype of plants with the edited EPSPS gene: minimal phenotypic change

## Cc1c(N)nc([C@H](CC(N)=O)NC[C@H](N)C(N)=O)nc1C(=O)N[C@H](C(=O)N[C@H](C)[C@@H](O)[C@H](C)C(=O)N[C@H](C(=O)NCCC1=N[C@@H](c2nc(C(=O)NCCCCN=C(N)N)cs2)CS1)[C@@H](C)O)[C@@H](O[C@@H]1O[C@@H](CO)[C@@H](O)[C@H](O)[C@@H]1O[C@H]1O[C@H](CO)[C@@H](O)[C@H](OC(N)=O)[C@@H]1O)c1cnc[nH]1 [zeocin]
[1]
  effect of antibiotic pre-treatment on BFP to GFP gene editing: increase in BFP to GFP gene editing
[2]; zeocin 1 mg/ml, 90 min on ice prior to PEG treatment with GRON
  effect of zeocin on BFP to GFP conversion: increased BFP to GFP conversion rates

## BFP/41/3PS: BFP GRON with three adjacent PS modifications at each end (sense dG*dC*dT*dGdAdAdGdCdAdCdTdGdCdAdCdGdCdCdGdTdAdGdGdTdAdAdAdCdGdTdGdGdTdCdAdCdGdAdGdGdGdT*dG*dG*dG)
Bfp gene
  BFP to GFP conversion / editing, comparison in words: more BFP to GFP precise scarless edits

## CG2: BFP antisense 41 nb 3PS modified (antisense dG*dC*dT*dGdAdAdGdCdAdCdTdGdCdAdCdGdCdCdGdTdAdGdGdTdGdAdAdGdGdTdGdGdTdCdAdCdGdA*dG*dG*dG)
Bfp gene
  BFP to GFP conversion / editing, comparison in words: more efficacious

## CG3: BFP sense 41 nb 3PS modified (sense CGCTCGTGACCACCTTCACCTACGGCGTGCAGTGCTTCAGC; linkages s3 o34 s3 (s phosphorothioate, o phosphodiester), sugars by position and methylation of C not given here)
Bfp gene
  BFP to GFP conversion / editing, comparison in words: no statistical difference

## phleomycin [reference compound]
[1]
  effect of antibiotic pre-treatment on BFP to GFP gene editing: increase in BFP to GFP gene editing; also recorded: dose-dependent increase in GFP positive cells
[2]; phleomycin 10 μg/mL, GRON BFP/41, 24 h
  number of GFP positive cells compared to the BFP/41/NT control: no improvement
[2]; phleomycin 1000 μg/mL pre-treatment 90 min, GRON BFP/41, 24 h
  BFP to GFP conversion frequency: 0.14%

B1: GRON (SEQ ID NO: 79): Cy3/idC GRON targeting the rice accase gene, Example 21 (nucleic acid)
chain: CTGACCTGAACTTGATCTCAATTAACCCTTGCGGTTCCAGAACATTGCCTTTTGCAGTCCTCTCAGCATAGCACTCAATGCGGTCTGGGTTTATCTTGCTTCCAACGACAACCCAAGCCCCTCCTCGTAGCTCTGCAGCCATGGGAATGTAGACAAAGGCAGGCTGATTGTATGTCCTAAGGTTCTCAACAATAGTCGAGCC
modifications: Cy3 label and idC cap; 5′ CY3/ 3′ 3′DMT dC CPG
Accase gene; CRISPR-Cas plasmid plus GRON, 120 h
  ACCase conversion: 0.026%
Accase gene; GRON only, no CRISPR-Cas, 120 hours
  ACCase conversion: 0.002%
